Reference: patent US20230248832A1, “Small Molecule Ligand-Drug Conjugates for Targeted Cancer Therapy” (Emory University, priority 2008, published 2023)
Entries after “also recorded” stand apart in the source; their conditions may differ. Like-named read-outs stand apart in the source and are kept apart here.

How the values were obtained:
cancer [1] = assay: In vitro cancer targeting of IR783 derivatives; format: cell-based
cancer [2] = assay: In vivo cancer targeting of IR783 derivatives
cancer cells = assay: Toxicity to cancer cells at day 2 (FIG. 6); format: cell-based; conditions: evaluated at day 2; compared with free nonconjugated drug taxotere
Excerpt: IR-783 (dye molecule only) is nontoxic. […] This is expected since IR783 conjugated to docetaxel or paclitaxel, accumulation in cells require enzymatic activation, which releases the active taxotere or taxol component inside of the cells to exert cytotoxicity against the growth of cancer cells.

[3] = tested on: C4-2 human prostate cancer cells implanted subcutaneously; assay: Subcutaneous C4-2 prostate tumor model; format: in vivo, athymic nude mice; conditions: for incidence of tumor formation: SQ C4-2, i.p., IR783 and IR-MUT1 5 mg/kg daily, taxotere 15 mg/kg twice per week; for apoptosis in SQ C4-2 tumors (histopathology, H/E stain): SQ C4-2 tumors in mice
Procedure: 1 million C4-2 human prostate cancer cells were implanted subcutaneously into the back of the 4 to 6 week old athymic nude mice. […] Tumor diameters were measured with a caliper, and tumor volume in mm^3 is calculated by the formula: Volume=(width)^2×length/2.
Serum PSA levels were used to monitor tumor growth in a C4-2 SQ tumor model. Mice were checked for serum PSA levels before implantation and at 35 and 45 days after tumor cell implantation.
(§1) C4-2 prostate cancer cells were subcutaneously implanted into the back of the 4 to 6 week old athymic nude mice. […] The serum prostate specific antigen (PSA) levels, which indicating the presence of prostate cancers, were monitored during the tumor reduction study.

[4] = tested on: C4-2 human prostate cancer cells implanted intraosseously into the tibia; assay: Intratibial C4-2 prostate tumor model; format: in vivo, athymic nude mice; conditions: for tumors growing from tibia (incidence): i.p. from 30 days after implantation
Procedure: 1 million C4-2 human prostate cancer cells were implanted intraosseously into the tibia of the 4 to 6 week old athymic nude mice. […] The animals were observed daily and body weights were measured daily. Tumor diameters are measured with calipers, and tumor volume in mm^3 is calculated by the formula: Volume=(width)^2×length×0.5236.
In another tumor model, C4-2 cancer cells were administered intraosseously into the tibia of the 4 to 6 week old athymic nude mice.

[5] = Body weight during treatment of C4-2 tumor-bearing mice; format: in vivo, athymic nude mice; conditions: i.p.
Excerpt: During treatment, the body weights were obtained daily.
as §1

[6] = tested on: P69 normal human prostate epithelial cells; assay: MTT cytotoxicity assay, P69; format: cell-based; conditions: Epithelial cell, 48 hours
Procedure: (§2) C4-2 (FIG. 13A) and P69 (FIG. 13B) cells were plated in 96 well plates (3,000/well). […] (FIG. 13C) SN12C and (FIG. 13D) HEK293 cells were plated in 96 well plates (3,000/well).

[7] = tested on: HEK293 human embryonic kidney cells; assay: MTT cytotoxicity assay, HEK293; format: cell-based; conditions: 48 hrs
Procedure: as §2

[8] = tested on: C4-2 human prostate cancer cells; assay: MTT cytotoxicity assay, C4-2; format: cell-based; conditions: C4-2 cells, 48 hrs
Procedure: as §2

[9] = tested on: SN12C human renal cancer cells; assay: MTT cytotoxicity assay, SN12C; format: cell-based; conditions: 48 hrs
Procedure: as §2

Row | SMILES | In vitro targeting (cancer [1]) | In vivo targeting (cancer [2]) | other results
1 | CCn1/c(=C/C=C/C2=[N+](CC)c3cccc4cccc2c34)c2cccc3cccc1c32 | good | poor | 
2 | CC1(C)C(/C=C/C2=C(Cl)C(=C/C=C3/N(CCCCC(=O)O)c4ccccc4C3(C)C)/CCC2)=[N+](CCCCC(=O)[O-])c2ccccc21 | excellent | excellent | 
3 | COc1ccc2c(c1)C(C)(C)C(/C=C/C=C/C=C1/N(C)c3ccc(OC)cc3C1(C)C)=[N+]2C.[I-] | excellent |  | 
4 | CN1/C(=C/C=C(Cl)/C=C/C2=[N+](C)c3ccc4ccccc4c3C2(C)C)C(C)(C)c2c1ccc1ccccc21 | excellent |  | 
5 | CN1/C(=C/C=C(Cl)/C=C/C2=[N+](C)c3ccccc3C2(C)C)C(C)(C)c2ccccc21.[I-] | excellent |  | 
6 | CC1(C)C(/C=C/C2=C(Cl)C(=C/C=C3/N(CCCCCC(=O)O)c4ccccc4C3(C)C)/CCC2)=[N+](CCCCCC(=O)O)c2ccccc21.[Na+].[Na+] | excellent | excellent | 
7 | CC1(C)C(/C=C/C2=C(Cl)C(=C/C=C3/N(CCCCO)c4ccccc4C3(C)C)/CCC2)=[N+](CCCCO)c2ccccc21 | poor | poor | 
8 | CC1(C)C(/C=C/C2=C(Cl)C(=C/C=C3/N(CCCc4ccccc4)c4ccccc4C3(C)C)/CCC2)=[N+](CCCc2ccccc2)c2ccccc21 | excellent | poor | 
9 | CC1(C)C(/C=C/C2=C(Cl)C(=C/C=C3/N(CCO)c4ccccc4C3(C)C)/CCC2)=[N+](CCO)c2ccccc21 | excellent | low intensity | 
10 | CN1/C(=C/C=C2\CCCC(/C=C/C3=[N+](C)c4ccc5ccccc5c4C3(C)C)=C2Cl)C(C)(C)C2=c3ccccc3=CCC21.[I-] (stereo not shown) |  | poor | 
11 | I.O=C1C(/C=c2\c3cccc4cccc(c43)n2CCCc2ccccc2)=C([O-])C/1=C/C1=[N+](CCCc2ccccc2)c2cccc3cccc1c23 |  | poor | 
12 | O=C(O)CCCCCn1/c(=C/C=C2\CCCC(/C=C/C3=[N+](CCCCCC(=O)O)c4cccc5cccc3c45)=C2Cl)c2cccc3cccc1c32.[Na+].[Na+] | poor | poor | 
13 | CC1(C)C(=CC=C2CCCC(C=CC3=[N+](CCCCS(=O)(=O)[O-])c4ccccc4C3(C)C)=C2Cl)N(CCCCS(=O)(=O)[O-])c2ccccc21.[Na+] [IR-783, reference compound] |  |  | toxicity to cancer cells (cancer cells): nontoxic; incidence of tumor formation [3]: 9/20; apoptosis in SQ C4-2 tumors (histopathology, H/E stain) [3]: negligible; apoptosis in SQ C4-2 tumors (histopathology, H/E stain) ([3]; listed as IR783): not affected; bone lesions on X-ray [4]: both the osteolytic and osteoblastic lesions were apparently observed; average volume of tumor ([4]; IR-783 group versus IR-MUT1 group): significantly higher; tumors growing from tibia (incidence) [4]: 4/5; bone lesions on X-ray ([4]; listed as IR783): severe osteolytic lesions; effect on body weight [5]: no body weight loss
14 | CC(=O)O[C@@]12CO[C@@H]1C[C@H](O)[C@@]1(C)C(=O)[C@H](O)C3=C(C)[C@@H](OC(=O)[C@H](O)[C@@H](NC(=O)OC(C)(C)C)c4ccccc4)C[C@@](O)([C@@H](OC(=O)c4ccccc4)[C@H]21)C3(C)C [taxotere, docetaxel, reference compound] |  |  | IC50 [6]: ~10 nM; IC50 [7]: ~600 nM; IC50 [8]: 10 nM; serum PSA levels ([3]; 35 and 45 days after tumor cell implantation, compared with IR-783 (control) group): greatly depressed; also recorded: dramatically lower; also recorded: significantly lower; incidence of tumor formation [3]: no tumor growing; also recorded: no tumor formed; bone lesions on X-ray [4]: no lesion; tumors growing from tibia (incidence) [4]: 0/5; effect on body weight [5]: noticeably lower; IC50 [9]: 12 nM
